Experimental data as given in a melting point compilation (Tetko et al.).

melting point | Compound
206 to 208 °C | CC(C)(C)c1ccc(C=CC(=O)O)cc1
113 to 115 °C | NCCNc1ccc(-c2ccccc2)nn1
116 to 118 °C | Nc1ccc(Oc2ccc(C(F)(F)F)cc2)nc1
94 to 96 °C | COCc1ccccc1C(=O)O
253 to 255 °C | N#Cc1cc2c([nH]c1=O)CCCCC2
119 to 121 °C | O=C(NCC(F)(F)F)c1ccc(Br)cc1
213 to 215 °C | Cc1nn(C)c(C)c1S(N)(=O)=O
180 to 182 °C | Nc1ccc(S(=O)(=O)NCc2ccco2)cc1
143 to 145 °C | NC(=O)c1ccccc1N1CCC(N)CC1
144 to 146 °C | CC(=O)c1cnc2cc(C)nn2c1C
269 to 271 °C | Cc1c(Cl)ccc2ccc(=O)[nH]c12
119 to 121 °C | COc1ccc2[nH]c(C)nc2c1
129 to 131 °C | NCc1cc2c([nH]c1=O)CCC2
133 to 135 °C | O=c1c2ccccc2nnn1CO
148 to 150 °C | CC(C1CC1)n1ncc2c(C(=O)O)cc(C3CC3)nc21 (stereo not drawn)
129 to 131 °C | O=C(Nc1cccc(I)c1)C(F)(F)F
162 to 164 °C | CCCCCOc1ccc2cc(C(=O)O)[nH]c2c1
89 to 91 °C | CC(C)(O)c1cn(-c2ccccc2)nn1
188 to 190 °C | NS(=O)(=O)c1cnc2c(c1)CCC2
190 to 195 °C | O=C(O)c1ccc(-c2cc(Cl)cc(Cl)c2)s1
124 to 126 °C | O=C1CCc2ccccc2CN1
140 to 142 °C | Cc1sc2nc(-c3ccc(OC(F)F)cc3)nc(Cl)c2c1C
166 to 168 °C | Clc1ncnc2ccc(Br)cc12

melting point | Compound
54 to 58 °C | CCCc1cc(N)on1
106 to 108 °C | Cc1c(N)cccc1C(=O)N1CCOCC1
126 to 128 °C | Cc1cc(C(=O)O)c(N)s1
114 to 116 °C | CN(C)c1ncnc(Cl)c1N
148 to 150 °C | CC(C)n1cc(Br)cc1C(=O)O
82 to 87 °C | CN1C(=O)CC(O)C1=O (stereo not drawn)
195 to 197 °C | Nc1ccc(S(=O)(=O)N2CCCC(C(=O)O)C2)cc1 (stereo not drawn)
88 to 90 °C | Nc1ccn(Cc2ccccn2)n1
105 to 107 °C | Cc1ccc(S(=O)(=O)OC(c2nc(C)cs2)C(F)(F)F)cc1 (stereo not drawn)
171 to 174 °C | COC(=O)c1sc(N)nc1C
174 to 176 °C | CN(C)S(=O)(=O)c1ccc(N2CCOCC2)c(N)c1
164 to 166 °C | Fc1ccc(-c2nnc(Cl)c3ccccc23)cc1F
77 to 79 °C | CC(N)c1nc(-c2ccc(Br)cc2)cs1 (stereo not drawn)
111 to 113 °C | Clc1nc(-c2ccccc2)c2ccccc2n1
39 to 41 °C | Cc1ccsc1C(=O)c1ccc(Cl)cc1F
141 to 143 °C | Nc1ccc(C(=O)NC2CCCC2)cc1
141 to 143 °C | Nc1nc2ccccc2nc1Cl
58 to 66 °C | Nc1nc2c(s1)CCc1ccccc1-2
227 to 229 °C | Cc1c(NS(=O)(=O)c2ccc(Cl)c([N+](=O)[O-])c2)c(=O)n(-c2ccccc2)n1C
189 to 191 °C | Cc1cc2ccn(C)c2c(=O)[nH]1
79 to 81 °C | COc1cc(Br)c(F)cc1S(=O)(=O)Cl
225 to 227 °C | O=C1CSC(c2ccc(F)cc2)N1C1CC1 (stereo not drawn)
103 to 105 °C | O=C(O)Cc1coc2cc(F)ccc12

melting point | Compound
84 to 86 °C | CCOC(=O)c1cnc2ccccc2c1-n1cncn1
132 to 134 °C | CC(C)(C)C1CCC(c2cc(N)[nH]n2)CC1 (stereo not drawn)
259 to 261 °C | CCCn1c(CCC(=O)O)nc2cc(S(N)(=O)=O)ccc21
229 to 231 °C | NC(=NO)c1cccc(NC(=O)C2CC2)c1
131 to 133 °C | O=C(O)Cc1ccc(S(=O)(=O)Cl)cc1
187 to 189 °C | NNc1ccc(S(=O)(=O)Nc2ccc(Cl)cc2)cc1[N+](=O)[O-]
129 to 131 °C | O=C(O)c1occc1COc1ccccc1
255 to 257 °C | O=C(O)Cc1csc(-c2ccc(Cl)cc2)n1
210 to 212 °C | O=C1Nc2cc3c(cc2C1=O)OCCO3
194 to 196 °C | Cc1[nH]c(-c2ncccn2)nc(=O)c1CC(=O)O
140 to 142 °C | CN1CCN(c2ncc(Br)cc2CO)CC1
179 to 181 °C | COc1ccc2ncc(=O)[nH]c2c1
99 to 101 °C | CC(O)(C(=O)O)c1cccc(F)c1 (stereo not drawn)
138 to 140 °C | Cn1nc(C(C)(C)C)cc1NC(=O)CCl
113 to 115 °C | CC(Oc1cccc(Br)c1)C(=O)NN (stereo not drawn)
185 to 187 °C | Cc1cc(C)n2nc(Br)nc2n1
148 to 150 °C | CCOC(=O)c1c(C)[nH]c(C(=O)C(C)Cl)c1C (stereo not drawn)
120 to 122 °C | CCNC(=O)NCc1ccc(N)cc1
194 to 196 °C | Cc1ncc(CN)c(O)n1
154 to 156 °C | O=C(O)c1cc(F)c(F)c(S(=O)(=O)Cl)c1
62 to 64 °C | CC1C(C(F)(F)F)OC(=O)N1c1ncccc1N (stereo not drawn)
159 to 161 °C | CCC1(c2cccc(Cl)c2)NC(=O)NC1=O (stereo not drawn)
99 to 101 °C | O=C(CN1CCNCC1)Nc1ccccc1Cl

melting point | Compound
65 to 67 °C | CC(C)(C)c1ccc(-c2nnc(CCl)o2)cc1
62 to 66 °C | CCc1ccccc1C(=O)O
115 to 117 °C | CC(C)(C)c1cnc(S)s1
128 to 130 °C | NCc1ccc(CN2CCC(O)CC2)cc1
66 to 68 °C | O=C(O)C(O)C1CC1 (stereo not drawn)
160 to 162 °C | Sc1nnc(Nc2ccccc2)s1
96 to 100 °C | CCCn1c(=O)[nH]c2ccccc21
189 to 191 °C | O=C(Nc1ccccc1C(=O)O)c1ccc(Oc2ccccc2)cc1
135 to 137 °C | O=C(CCl)Nc1nc(-c2ccccc2Cl)c(-c2ccccc2Cl)s1
160 to 164 °C | Cc1cc(S)nc(C(C)C)n1
174 to 176 °C | Cc1nn(-c2ccccc2F)c(C)c1CC(=O)O
116 to 118 °C | COc1ccc(S(=O)(=O)CC(C)C(=O)O)cc1 (stereo not drawn)
64 to 66 °C | CCOC(=O)C(=O)Nc1ccc(C)cc1
202 to 204 °C | CCOc1ccc(/C=C/C(=O)O)cc1OC
155 to 157 °C | Cc1c(N)cccc1C(=O)N1CCSCC1
122 to 124 °C | CS(=O)(=O)c1ccc(F)c(S(=O)(=O)Cl)c1
109 to 111 °C | O=C(O)c1nc(OCC2CC2)c2ccccc2n1
213 to 215 °C | CC(C)(C)c1ccc(-c2ccc(C(=O)O)o2)cc1
129 to 131 °C | NS(=O)(=O)c1cccc(F)c1
96 to 98 °C | CC(Cl)C(=O)Nc1ccc(F)c([N+](=O)[O-])c1 (stereo not drawn)
39 to 41 °C | CC(C)(C)NCCS(C)(=O)=O
59 to 61 °C | N#Cc1cc(F)cc(CO)c1
80 to 82 °C | Cc1cc(C(=O)CCl)c(F)cc1F

melting point | Compound
82 to 84 °C | Nc1ccc(-n2nccn2)nc1
202 to 204 °C | Nc1nc2c(s1)CCCCCC2
122 to 124 °C | Cc1cc(Cl)ccc1OC(C(=O)O)c1ccccc1 (stereo not drawn)
279 to 281 °C | O=C(O)c1cc2cc(Br)cc(Br)c2o1
164 to 166 °C | O=C(O)c1cccc(S(=O)(=O)Nc2ccccc2-c2ccccc2)c1
232 to 234 °C | COc1ccc(NS(=O)(=O)c2cc(N)ccc2N2CCOCC2)cc1
139 to 141 °C | Cc1ccc(Br)cc1S(N)(=O)=O
156 to 158 °C | Cc1[nH]n(-c2ccc(Cl)c(Cl)c2)c(=N)c1C
318 to 320 °C | O=C1NC(=O)C(Cc2ccccc2)(Cc2ccccc2)N1
108 to 110 °C | CC(C)(C)OC(=O)NC1CC(O)C1 (stereo not drawn)
72 to 74 °C | NCC1CCN(c2ccncc2)CC1
64 to 66 °C | CCOC(=O)c1c(-c2ccccc2)csc1NC(=O)CCCl
82 to 84 °C | CC1CNc2ccccc2NC1
124 to 126 °C | COC(=O)C(O)c1cccc(O)c1 (stereo not drawn)
168 to 170 °C | CC(=O)NC(CC(N)=O)C(=O)O (stereo not drawn)
296 to 298 °C | Cn1nc(Br)c2c(=O)[nH]cnc21
39 to 41 °C | CC1CC(C(=O)O)CC(C)(C)C1 (stereo not drawn)
109 to 111 °C | O=[N+]([O-])c1cn(Cc2ccc(F)cc2)cn1
77 to 79 °C | CCOC(=O)c1oc2ccccc2c1CBr
202 to 204 °C | CCc1c(C(=O)O)[nH]c(C)c1C(C)=O
54 to 56 °C | CCOc1ccc(NC2CCN(CC(F)(F)F)CC2)cc1
188 to 190 °C | Cc1cccc2c(CC(=O)O)c[nH]c12
169 to 171 °C | Nc1ncn(Cc2ccc(Br)cc2)n1

melting point | Compound
67 to 69 °C | CN(C)C(=O)c1ccc(Cl)nc1
188 to 190 °C | O=C(O)C1CC(=O)N(CCc2ccccc2)C1 (stereo not drawn)
346 to 348 °C | CNc1cc(C(=O)O)c2ccccc2n1
163 to 165 °C | Nc1ccc2c(c1)C(=O)N(CC1CC1)C2=O
199 to 201 °C | O=C(O)c1nc2ncc(Br)cn2n1
159 to 161 °C | Cn1ccc(NC(=O)CC#N)n1
247 to 249 °C | Cc1cnc(O)c([N+](=O)[O-])c1
42 to 44 °C | O=S(=O)(Cl)c1ccc(OCC(F)F)cc1
129 to 131 °C | COC(=O)c1cnc2c(c1)c(C)nn2C
178 to 182 °C | NC(=O)Nc1ccc2c(c1)OCO2
89 to 91 °C | CN1CCNc2cccnc21
196 to 198 °C | Nc1nnc(Cc2ccccc2Cl)o1
269 to 271 °C | O=C(c1c[nH]c(=O)[nH]1)N1CCNCC1
119 to 121 °C | CNC(=O)CC(N)=NO
217 to 219 °C | O=C(O)c1csc(COc2ccc(Cl)cc2)n1
128 to 130 °C | Cn1nnnc1Sc1ccc(Cl)cc1N
104 to 106 °C | COC(=O)C(=O)CC(=O)c1ccc(Br)cc1
76 to 78 °C | CSc1c[nH]nc1N
65 to 67 °C | COC(=O)CCNc1ncccc1[N+](=O)[O-]
79 to 81 °C | COC(=O)c1cnn2ccccc12
322 to 324 °C | N#Cc1cn(-c2ccc([N+](=O)[O-])cn2)nc1N
37 to 39 °C | COC(=O)C(=O)C=C(C)OC

Compound | melting point
O=C(O)c1cn(Cc2ccccc2)c2ccccc12 | 192 to 194 °C
NC(=O)C(Cl)c1ccc(F)cc1 (stereo not drawn) | 93 to 95 °C
NC(C(=O)O)c1ccc(Cl)cc1 (stereo not drawn) | 219 to 221 °C
Cc1cc(=O)nc2sc(N3CCNCC3)nn12 | 234 to 236 °C
CC(=O)N1CCC(C(=O)O)(c2ccccc2)CC1 | 207 to 209 °C
C#CCNC(=O)CCl | 63 to 67 °C
